Laboratory results as given in the kinase profiling compilation of Christmann-Franck et al. (2016).

How the values were obtained:
Assay in all cases: KINOMEscan competition binding
Details in all cases: compound 10.0 µM
PRKG1 (human) = PRKG1 (human) (UniProt Q13976)
[1] = tested on: KIT (human), P10721 [D816V]
NEK6 (human) = NEK6 (human) (UniProt Q9HC98)
MAPK1 (human) = MAPK1 (human) (UniProt P28482)
PRKX (human) = PRKX (human) (UniProt P51817)
FGR (human) = FGR (human) (UniProt P09769)
PIK3C2B (human) = PIK3C2B (human) (UniProt O00750)
PAK3 (human) = PAK3 (human) (UniProt O75914)
IGF1R (human) = IGF1R (human) (UniProt P08069)
CHEK1 (human) = CHEK1 (human) (UniProt O14757)
MAP3K5 (human) = MAP3K5 (human) (UniProt Q99683)
DDR2 (human) = DDR2 (human) (UniProt Q16832)
PRKCH (human) = PRKCH (human) (UniProt P24723)
NUAK2 (human) = NUAK2 (human) (UniProt Q9H093)
GAK (human) = GAK (human) (UniProt O14976)
CDK11B (human) = CDK11B (human) (UniProt P21127)
NEK5 (human) = NEK5 (human) (UniProt Q6P3R8)
NEK7 (human) = NEK7 (human) (UniProt Q8TDX7)
RPS6KA5 KD1 (human) = RPS6KA5 KD1 (human) (UniProt O75582)
ACVR2B (human) = ACVR2B (human) (UniProt Q13705)
MAP2K1 (human) = MAP2K1 (human) (UniProt Q02750)
DAPK3 (human) = DAPK3 (human) (UniProt O43293)
CDKL2 (human) = CDKL2 (human) (UniProt Q92772)
MAPK4 (human) = MAPK4 (human) (UniProt P31152)
ROS1 (human) = ROS1 (human) (UniProt P08922)
CaMK1 (human) = CaMK1 (human) (UniProt Q14012)
RPS6KA3 KD1 (human) = RPS6KA3 KD1 (human) (UniProt P51812)
MYO3A (human) = MYO3A (human) (UniProt Q8NEV4)
FER (human) = FER (human) (UniProt P16591)
ALK (human) = ALK (human) (UniProt Q9UM73)
GSK3A (human) = GSK3A (human) (UniProt P49840)
EPHB3 (human) = EPHB3 (human) (UniProt P54753)
PIP5K1A (human) = PIP5K1A (human) (UniProt Q99755)
DAPK1 (human) = DAPK1 (human) (UniProt P53355)
RPS6KA4 KD1 (human) = RPS6KA4 KD1 (human) (UniProt O75676)
CAMKK2 (human) = CAMKK2 (human) (UniProt Q96RR4)
LIMK2 (human) = LIMK2 (human) (UniProt P53671)
SIK2 (human) = SIK2 (human) (UniProt Q9H0K1)
[2] = tested on: ABL1 (human), P00519 [M351T]
EPHA2 (human) = EPHA2 (human) (UniProt P29317)

RPS6KA5 KD1 (human), sequence (O75582 whole entry, looked up): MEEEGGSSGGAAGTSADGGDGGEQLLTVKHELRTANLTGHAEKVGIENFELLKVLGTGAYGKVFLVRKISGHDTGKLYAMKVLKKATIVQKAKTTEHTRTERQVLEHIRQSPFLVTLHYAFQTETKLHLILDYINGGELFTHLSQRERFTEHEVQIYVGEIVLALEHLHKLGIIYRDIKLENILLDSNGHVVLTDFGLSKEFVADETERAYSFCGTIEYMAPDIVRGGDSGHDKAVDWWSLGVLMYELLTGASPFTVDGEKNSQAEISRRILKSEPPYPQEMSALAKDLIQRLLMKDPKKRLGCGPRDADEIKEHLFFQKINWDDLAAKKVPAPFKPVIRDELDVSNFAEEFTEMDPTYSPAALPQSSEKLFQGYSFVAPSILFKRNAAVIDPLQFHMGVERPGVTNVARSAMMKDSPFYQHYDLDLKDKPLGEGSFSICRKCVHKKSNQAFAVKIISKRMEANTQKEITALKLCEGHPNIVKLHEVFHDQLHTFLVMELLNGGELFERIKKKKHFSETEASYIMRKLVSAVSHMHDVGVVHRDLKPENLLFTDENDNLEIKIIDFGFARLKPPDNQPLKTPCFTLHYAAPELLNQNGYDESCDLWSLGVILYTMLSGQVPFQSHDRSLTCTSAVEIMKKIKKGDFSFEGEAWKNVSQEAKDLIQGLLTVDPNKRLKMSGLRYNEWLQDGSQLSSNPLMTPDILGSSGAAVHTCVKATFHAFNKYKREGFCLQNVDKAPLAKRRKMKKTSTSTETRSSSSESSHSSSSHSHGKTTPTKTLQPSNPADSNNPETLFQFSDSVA
SIK2 (human), sequence (Q9H0K1 whole entry, looked up): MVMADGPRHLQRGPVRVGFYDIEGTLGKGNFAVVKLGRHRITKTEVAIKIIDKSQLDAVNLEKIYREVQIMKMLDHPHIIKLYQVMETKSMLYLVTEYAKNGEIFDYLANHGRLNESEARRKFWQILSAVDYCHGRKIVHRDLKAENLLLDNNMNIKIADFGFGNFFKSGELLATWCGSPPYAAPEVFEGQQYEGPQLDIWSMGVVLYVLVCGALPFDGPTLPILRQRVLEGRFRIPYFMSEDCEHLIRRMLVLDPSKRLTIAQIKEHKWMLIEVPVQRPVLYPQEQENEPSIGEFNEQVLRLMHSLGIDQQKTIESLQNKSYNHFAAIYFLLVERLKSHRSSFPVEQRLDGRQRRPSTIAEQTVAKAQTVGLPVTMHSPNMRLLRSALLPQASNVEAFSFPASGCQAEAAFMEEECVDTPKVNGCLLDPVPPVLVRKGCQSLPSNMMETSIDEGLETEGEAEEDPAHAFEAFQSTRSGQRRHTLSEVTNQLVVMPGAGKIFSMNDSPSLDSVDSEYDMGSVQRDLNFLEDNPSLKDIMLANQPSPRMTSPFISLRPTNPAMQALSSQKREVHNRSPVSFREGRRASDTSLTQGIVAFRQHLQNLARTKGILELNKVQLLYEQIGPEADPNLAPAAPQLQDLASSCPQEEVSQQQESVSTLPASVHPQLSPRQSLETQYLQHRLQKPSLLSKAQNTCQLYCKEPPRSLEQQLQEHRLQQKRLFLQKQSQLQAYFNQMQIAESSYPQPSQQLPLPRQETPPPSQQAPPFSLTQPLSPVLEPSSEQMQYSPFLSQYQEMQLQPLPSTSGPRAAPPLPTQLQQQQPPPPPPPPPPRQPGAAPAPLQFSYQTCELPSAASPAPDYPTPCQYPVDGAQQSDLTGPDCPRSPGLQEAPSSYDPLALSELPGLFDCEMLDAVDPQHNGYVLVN
NUAK2 (human), sequence (Q9H093 whole entry, looked up): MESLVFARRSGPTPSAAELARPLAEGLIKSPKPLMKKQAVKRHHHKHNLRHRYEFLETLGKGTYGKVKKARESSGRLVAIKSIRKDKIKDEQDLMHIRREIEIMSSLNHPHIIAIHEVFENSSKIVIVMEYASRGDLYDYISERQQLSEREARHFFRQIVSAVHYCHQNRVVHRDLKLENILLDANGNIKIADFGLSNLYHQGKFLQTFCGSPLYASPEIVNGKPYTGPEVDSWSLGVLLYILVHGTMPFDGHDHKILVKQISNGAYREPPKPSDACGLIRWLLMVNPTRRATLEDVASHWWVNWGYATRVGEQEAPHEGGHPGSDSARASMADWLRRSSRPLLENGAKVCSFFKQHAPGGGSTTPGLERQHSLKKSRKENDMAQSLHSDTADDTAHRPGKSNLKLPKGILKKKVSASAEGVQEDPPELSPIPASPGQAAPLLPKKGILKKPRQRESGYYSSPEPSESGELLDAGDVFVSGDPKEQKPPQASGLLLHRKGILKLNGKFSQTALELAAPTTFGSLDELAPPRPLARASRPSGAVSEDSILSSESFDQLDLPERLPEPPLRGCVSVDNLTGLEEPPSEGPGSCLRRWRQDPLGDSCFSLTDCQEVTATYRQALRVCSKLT
CAMKK2 (human), sequence (Q96RR4 whole entry, looked up): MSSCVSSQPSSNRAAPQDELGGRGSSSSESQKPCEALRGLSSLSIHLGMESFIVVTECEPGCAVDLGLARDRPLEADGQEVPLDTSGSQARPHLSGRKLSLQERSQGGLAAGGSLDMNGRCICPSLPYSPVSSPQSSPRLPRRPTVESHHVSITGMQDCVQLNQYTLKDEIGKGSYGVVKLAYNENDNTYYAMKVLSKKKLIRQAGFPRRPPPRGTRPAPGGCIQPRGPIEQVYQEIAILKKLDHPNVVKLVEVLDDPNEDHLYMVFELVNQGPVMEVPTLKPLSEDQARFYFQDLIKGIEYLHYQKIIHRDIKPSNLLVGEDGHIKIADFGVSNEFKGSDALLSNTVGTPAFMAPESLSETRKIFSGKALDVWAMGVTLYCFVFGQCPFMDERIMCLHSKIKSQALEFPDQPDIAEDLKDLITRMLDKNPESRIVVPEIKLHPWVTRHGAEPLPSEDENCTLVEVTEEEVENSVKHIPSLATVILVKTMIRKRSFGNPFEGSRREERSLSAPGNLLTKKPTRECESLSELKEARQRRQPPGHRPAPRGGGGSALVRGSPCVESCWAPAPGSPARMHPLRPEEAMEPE
DAPK3 (human), sequence (O43293 whole entry, looked up): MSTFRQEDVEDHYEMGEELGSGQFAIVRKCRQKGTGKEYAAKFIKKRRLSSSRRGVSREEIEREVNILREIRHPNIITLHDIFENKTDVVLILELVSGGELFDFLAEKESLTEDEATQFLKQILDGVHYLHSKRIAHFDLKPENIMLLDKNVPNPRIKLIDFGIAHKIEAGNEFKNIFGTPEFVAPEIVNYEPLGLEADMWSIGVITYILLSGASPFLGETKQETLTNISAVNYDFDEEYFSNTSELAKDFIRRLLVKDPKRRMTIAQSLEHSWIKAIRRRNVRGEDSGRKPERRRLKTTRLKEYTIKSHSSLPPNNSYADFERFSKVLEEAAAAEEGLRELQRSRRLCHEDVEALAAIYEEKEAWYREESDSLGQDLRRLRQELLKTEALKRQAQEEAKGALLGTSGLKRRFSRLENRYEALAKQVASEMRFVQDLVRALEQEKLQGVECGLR
IGF1R (human), sequence (P08069 whole entry, looked up): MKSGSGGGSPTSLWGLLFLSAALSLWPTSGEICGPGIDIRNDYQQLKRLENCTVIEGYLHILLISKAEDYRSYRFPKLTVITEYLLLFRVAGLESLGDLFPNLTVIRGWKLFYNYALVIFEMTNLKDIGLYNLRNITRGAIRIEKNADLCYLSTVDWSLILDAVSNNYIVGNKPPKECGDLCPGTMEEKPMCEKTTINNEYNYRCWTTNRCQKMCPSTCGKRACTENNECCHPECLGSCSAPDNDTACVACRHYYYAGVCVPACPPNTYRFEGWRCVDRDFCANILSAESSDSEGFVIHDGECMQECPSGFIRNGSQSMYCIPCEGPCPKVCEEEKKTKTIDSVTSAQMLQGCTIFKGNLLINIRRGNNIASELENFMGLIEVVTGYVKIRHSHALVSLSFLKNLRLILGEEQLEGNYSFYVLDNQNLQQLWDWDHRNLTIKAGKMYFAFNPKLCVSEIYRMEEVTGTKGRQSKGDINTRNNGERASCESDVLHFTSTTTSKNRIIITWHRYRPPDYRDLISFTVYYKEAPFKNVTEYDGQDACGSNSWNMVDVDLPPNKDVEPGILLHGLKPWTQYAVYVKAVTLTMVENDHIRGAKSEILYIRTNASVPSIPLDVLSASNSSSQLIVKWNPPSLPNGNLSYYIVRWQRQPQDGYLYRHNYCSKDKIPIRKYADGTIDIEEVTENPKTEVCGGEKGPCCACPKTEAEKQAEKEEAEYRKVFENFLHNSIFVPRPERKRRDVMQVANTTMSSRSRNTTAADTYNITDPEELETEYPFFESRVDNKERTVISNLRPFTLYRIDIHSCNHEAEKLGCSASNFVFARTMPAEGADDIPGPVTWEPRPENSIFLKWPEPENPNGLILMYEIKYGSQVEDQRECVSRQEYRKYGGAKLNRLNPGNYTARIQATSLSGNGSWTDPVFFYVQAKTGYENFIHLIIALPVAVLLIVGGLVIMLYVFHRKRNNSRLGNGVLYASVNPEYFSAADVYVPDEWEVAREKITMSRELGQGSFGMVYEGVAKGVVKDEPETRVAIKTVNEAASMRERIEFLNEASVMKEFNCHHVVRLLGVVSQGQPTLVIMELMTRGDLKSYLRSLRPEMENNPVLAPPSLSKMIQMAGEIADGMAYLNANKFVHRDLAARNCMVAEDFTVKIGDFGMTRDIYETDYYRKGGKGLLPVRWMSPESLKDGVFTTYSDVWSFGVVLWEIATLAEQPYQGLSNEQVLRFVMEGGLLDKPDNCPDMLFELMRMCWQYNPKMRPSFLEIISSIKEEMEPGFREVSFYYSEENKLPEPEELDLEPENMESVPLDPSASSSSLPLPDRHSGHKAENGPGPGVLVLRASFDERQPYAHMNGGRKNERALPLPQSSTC
NEK7 (human), sequence (Q8TDX7 whole entry, looked up): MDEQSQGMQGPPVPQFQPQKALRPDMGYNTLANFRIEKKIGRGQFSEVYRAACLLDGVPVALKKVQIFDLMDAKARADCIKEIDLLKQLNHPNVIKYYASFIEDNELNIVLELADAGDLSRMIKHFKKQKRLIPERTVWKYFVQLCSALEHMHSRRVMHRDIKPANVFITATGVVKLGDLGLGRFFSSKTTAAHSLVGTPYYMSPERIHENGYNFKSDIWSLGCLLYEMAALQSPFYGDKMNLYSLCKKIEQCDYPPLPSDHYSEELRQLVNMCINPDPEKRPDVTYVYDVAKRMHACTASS

SMILES	kinase still bound, per cent of control (PRKG1 (human))	kinase still bound, per cent of control (NEK6 (human))	kinase still bound, per cent of control (MAPK1 (human))	kinase still bound, per cent of control (PRKX (human))	kinase still bound, per cent of control (FGR (human))	kinase still bound, per cent of control (PIK3C2B (human))	kinase still bound, per cent of control (PAK3 (human))	kinase still bound, per cent of control (IGF1R (human))	kinase still bound, per cent of control (MAP3K5 (human))	kinase still bound, per cent of control (DDR2 (human))	kinase still bound, per cent of control (PRKCH (human))	kinase still bound, per cent of control (NUAK2 (human))	kinase still bound, per cent of control (GAK (human))	kinase still bound, per cent of control (CDK11B (human))	kinase still bound, per cent of control (NEK5 (human))	kinase still bound, per cent of control (NEK7 (human))	kinase still bound, per cent of control (RPS6KA5 KD1 (human))	kinase still bound, per cent of control (ACVR2B (human))	kinase still bound, per cent of control (MAP2K1 (human))	kinase still bound, per cent of control (DAPK3 (human))	other results
COc1cc(N2CCN(C)CC2)ccc1Nc1nc(N)c(C(=O)c2c(Cl)cccc2Cl)s1	100%	100%	100%	93%	93%	98%	94%	72%	100%	100%	93%	60%	73%	5.3%	96%	100%	100%	92%	100%	78%	kinase still bound, per cent of control [1]: 92%; kinase still bound, per cent of control (CHEK1 (human)): 79%; kinase still bound, per cent of control (CDKL2 (human)): 93%; kinase still bound, per cent of control (MAPK4 (human)): 90%; kinase still bound, per cent of control (ROS1 (human)): 11%; kinase still bound, per cent of control (CaMK1 (human)): 0.75%; kinase still bound, per cent of control (RPS6KA3 KD1 (human)): 66%; kinase still bound, per cent of control (MYO3A (human)): 85%; kinase still bound, per cent of control (FER (human)): 82%; kinase still bound, per cent of control (ALK (human)): 0.35%; kinase still bound, per cent of control (GSK3A (human)): 67%; kinase still bound, per cent of control (EPHB3 (human)): 0%; kinase still bound, per cent of control (PIP5K1A (human)): 88%; kinase still bound, per cent of control (DAPK1 (human)): 85%; kinase still bound, per cent of control (RPS6KA4 KD1 (human)): 100%; kinase still bound, per cent of control (CAMKK2 (human)): 14%; kinase still bound, per cent of control (LIMK2 (human)): 94%; kinase still bound, per cent of control (SIK2 (human)): 100%; kinase still bound, per cent of control [2]: 84%
CCC(=O)N1CCN(c2ccc(-n3c(=O)ccc4cnc5ccc(-c6cnc7ccccc7c6)cc5c43)cc2C(F)(F)F)CC1	86%	99%	100%	83%	78%	25%	100%	94%	100%	100%	92%	100%	57%	97%	5.8%	90%	100%	42%	100%	82%	kinase still bound, per cent of control (EPHA2 (human)): 59%; kinase still bound, per cent of control (CDKL2 (human)): 58%; kinase still bound, per cent of control (MAPK4 (human)): 80%; kinase still bound, per cent of control (ROS1 (human)): 71%; kinase still bound, per cent of control (CaMK1 (human)): 50%; kinase still bound, per cent of control (RPS6KA3 KD1 (human)): 38%; kinase still bound, per cent of control (MYO3A (human)): 100%; kinase still bound, per cent of control (ALK (human)): 80%; kinase still bound, per cent of control (GSK3A (human)): 93%; kinase still bound, per cent of control (EPHB3 (human)): 85%; kinase still bound, per cent of control (PIP5K1A (human)): 89%; kinase still bound, per cent of control (DAPK1 (human)): 96%; kinase still bound, per cent of control (RPS6KA4 KD1 (human)): 100%; kinase still bound, per cent of control (CAMKK2 (human)): 85%; kinase still bound, per cent of control (LIMK2 (human)): 4.8%; kinase still bound, per cent of control (SIK2 (human)): 23%; kinase still bound, per cent of control [2]: 100%
O=C(O)c1ccc(Nc2ncc3c(n2)-c2ccc(Cl)cc2C(c2c(F)cccc2F)=NC3)cc1	100%	100%	100%	75%	7.6%	93%	52%	73%	100%	3.6%	100%	85%	49%	89%	46%	100%	99%	100%	86%	70%	kinase still bound, per cent of control (CHEK1 (human)): 91%; kinase still bound, per cent of control (CDKL2 (human)): 86%; kinase still bound, per cent of control (MAPK4 (human)): 66%; kinase still bound, per cent of control (ROS1 (human)): 23%; kinase still bound, per cent of control (CaMK1 (human)): 78%; kinase still bound, per cent of control (RPS6KA3 KD1 (human)): 28%; kinase still bound, per cent of control (MYO3A (human)): 80%; kinase still bound, per cent of control (FER (human)): 22%; kinase still bound, per cent of control (ALK (human)): 48%; kinase still bound, per cent of control (GSK3A (human)): 100%; kinase still bound, per cent of control (EPHB3 (human)): 29%; kinase still bound, per cent of control (PIP5K1A (human)): 100%; kinase still bound, per cent of control (DAPK1 (human)): 48%; kinase still bound, per cent of control (RPS6KA4 KD1 (human)): 100%; kinase still bound, per cent of control (CAMKK2 (human)): 72%; kinase still bound, per cent of control (LIMK2 (human)): 94%; kinase still bound, per cent of control (SIK2 (human)): 49%
CCCS(=O)(=O)Nc1ccc(F)c(C(=O)c2c[nH]c3ncc(-c4ccc(Cl)cc4)cc23)c1F	100%	100%	100%	100%	9.2%	100%	69%	93%	100%	35%	100%	98%	84%	100%	100%	100%	98%	27%	10%	95%	kinase still bound, per cent of control [1]: 52%; kinase still bound, per cent of control (EPHA2 (human)): 99%; kinase still bound, per cent of control (CDKL2 (human)): 49%; kinase still bound, per cent of control (MAPK4 (human)): 100%; kinase still bound, per cent of control (ROS1 (human)): 100%; kinase still bound, per cent of control (CaMK1 (human)): 25%; kinase still bound, per cent of control (RPS6KA3 KD1 (human)): 76%; kinase still bound, per cent of control (MYO3A (human)): 57%; kinase still bound, per cent of control (FER (human)): 54%; kinase still bound, per cent of control (ALK (human)): 62%; kinase still bound, per cent of control (GSK3A (human)): 54%; kinase still bound, per cent of control (EPHB3 (human)): 100%; kinase still bound, per cent of control (PIP5K1A (human)): 100%; kinase still bound, per cent of control (DAPK1 (human)): 83%; kinase still bound, per cent of control (RPS6KA4 KD1 (human)): 90%; kinase still bound, per cent of control (CAMKK2 (human)): 100%; kinase still bound, per cent of control (LIMK2 (human)): 24%; kinase still bound, per cent of control (SIK2 (human)): 61%; kinase still bound, per cent of control [2]: 55%
